# Test results as given in PubChem BioAssay AID192 (DTP/NCI, 2004).
# Where “and” joins values, the source holds several entries; their conditions need not be identical. Identical values can stand only once. Toxic doses and inconclusive results are not listed.
# Tested on: BDF1 mice, B16 melanoma ip, median survival T/C
# Experiment: NCI In Vivo Anticancer Drug Screen. Data for tumor model B16 Melanoma (intraperitoneal) in B6D2F1 (BDF1) mice
# Details: endpoint: median survival time, higher = longer survival
# Method in brief: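 In this screen, activity was judged from survival or tumor size in treated versus vehicle-treated tumor-bearing mice, reported as T/C.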
# [1] = dose: 3.12 mg/kg/injection, schedule: Q01DX009 (ip), vehicle: Klucel (hydroxypropylcellulose) (HPC)
# [2] = dose: 12.5 mg/kg/injection, schedule: Q01DX009 (ip), vehicle: Klucel (hydroxypropylcellulose) (HPC)
# [3] = dose: 50.0 mg/kg/injection, schedule: Q01DX009 (ip), vehicle: Klucel (hydroxypropylcellulose) (HPC)
# [4] = dose: 100.0 mg/kg/injection, schedule: Q01DX009 (ip), vehicle: Klucel (hydroxypropylcellulose) (HPC)
# [5] = dose: 400.0 mg/kg/injection, schedule: Q01DX009 (ip), vehicle: Klucel (hydroxypropylcellulose) (HPC)
# [6] = dose: 100.0 mg/kg/injection, schedule: Q01DX009 (ip), vehicle: saline
# [7] = dose: 200.0 mg/kg/injection, schedule: Q01DX009 (ip), vehicle: saline
# [8] = dose: 400.0 mg/kg/injection, schedule: Q01DX009 (ip), vehicle: saline
# [9] = dose: 25.0 mg/kg/injection, schedule: Q01DX009 (ip), vehicle: Klucel (hydroxypropylcellulose) (HPC)
# [10] = dose: 6.25 mg/kg/injection, schedule: Q01DX009 (ip), vehicle: Klucel (hydroxypropylcellulose) (HPC)
# [11] = dose: 50.0 mg/kg/injection, schedule: Q01DX009 (ip), vehicle: saline
# [12] = dose: 100.0 mg/kg/injection, schedule: Q01DX009 (ip), vehicle: saline with Tween-80
# [13] = dose: 200.0 mg/kg/injection, schedule: Q01DX009 (ip), vehicle: Klucel (hydroxypropylcellulose) (HPC)
smiles,measurement,setting,value
O=C1CN=C(c2ccccc2)c2cc([N+](=O)[O-])ccc2N1,T/C,"dose: 0.02 mg/kg/injection, schedule: Q01DX009 (ip), vehicle: Klucel (hydroxypropylcellulose) (HPC)",100 % of control
same,T/C,"dose: 0.04 mg/kg/injection, schedule: Q01DX009 (ip), vehicle: Klucel (hydroxypropylcellulose) (HPC)",103 % of control
same,T/C,"dose: 0.09 mg/kg/injection, schedule: Q01DX009 (ip), vehicle: Klucel (hydroxypropylcellulose) (HPC)",105 % of control
same,T/C,"dose: 0.19 mg/kg/injection, schedule: Q01DX009 (ip), vehicle: Klucel (hydroxypropylcellulose) (HPC)",101 % of control
same,T/C,"dose: 0.39 mg/kg/injection, schedule: Q01DX009 (ip), vehicle: Klucel (hydroxypropylcellulose) (HPC)",98 % of control
same,T/C,[1],86 % of control
same,T/C,[2],90 % of control
same,T/C,[3],99 % of control
same,T/C,[4],86 % of control
same,T/C,[5],86 % of control
Cc1c(Cl)cccc1NC(=O)Nc1ccccc1Cl,T/C,"dose: 75.0 mg/kg/injection, schedule: Q01DX009 (ip), vehicle: Klucel (hydroxypropylcellulose) (HPC)",106 % of control
same,T/C,"dose: 150.0 mg/kg/injection, schedule: Q01DX009 (ip), vehicle: Klucel (hydroxypropylcellulose) (HPC)",95 % of control
c1cc[c]([Sn][c]2ccccc2)cc1,T/C,"dose: 0.8 mg/kg/injection, schedule: Q04DX003 (ip), vehicle: saline with Tween-80",97 % of control
same,T/C,"dose: 1.2 mg/kg/injection, schedule: Q04DX003 (ip), vehicle: saline with Tween-80",97 % of control
same,T/C,"dose: 1.25 mg/kg/injection, schedule: Q01DX009 (ip), vehicle: saline",95 % of control
same,T/C,"dose: 1.8 mg/kg/injection, schedule: Q04DX003 (ip), vehicle: saline with Tween-80",100 % of control
same,T/C,"dose: 2.5 mg/kg/injection, schedule: Q01DX009 (ip), vehicle: saline",111 % of control
same,T/C,"dose: 2.5 mg/kg/injection, schedule: Q04DX003 (ip), vehicle: saline with Tween-80",121 % of control
same,T/C,"dose: 5.0 mg/kg/injection, schedule: Q01DX009 (ip), vehicle: saline",109 % of control
same,T/C,"dose: 5.0 mg/kg/injection, schedule: Q04DX003 (ip), vehicle: saline with Tween-80",115 % of control
Nc1nc(=O)n(C2OC(CO)C(O)C2O)cc1F (centres undefined),T/C,"dose: 6.25 mg/kg/injection, schedule: Q01DX009 (ip), vehicle: saline",116 % of control
same,T/C,"dose: 9.0 mg/kg/injection, schedule: Q01DX009 (ip), vehicle: saline",109 % of control
same,T/C,"dose: 12.5 mg/kg/injection, schedule: Q01DX009 (ip), vehicle: saline",96 % of control
same,T/C,"dose: 18.0 mg/kg/injection, schedule: Q01DX009 (ip), vehicle: saline",116 % of control
same,T/C,"dose: 24.0 mg/kg/injection, schedule: Q01DX009 (ip), vehicle: saline",118 % of control
same,T/C,"dose: 54.0 mg/kg/injection, schedule: Q01DX009 (ip), vehicle: saline",103 % of control
COc1cccc2c1C(=O)c1c(O)c3c(c(O)c1C2=O)C[C@@](O)(C(C)O)C[C@@H]3OC1CC(N2CCC(OC)CC2)C(O)C(C)O1 (some centres undefined),T/C,"dose: 3.12 mg/kg/injection, schedule: Q01DX001 (ip), vehicle: water",112 % of control
same,T/C,"dose: 6.25 mg/kg/injection, schedule: Q01DX001 (ip), vehicle: water",117 % of control
same,T/C,"dose: 12.5 mg/kg/injection, schedule: Q01DX001 (ip), vehicle: water",173 % of control
same,T/C,"dose: 25.0 mg/kg/injection, schedule: Q01DX001 (ip), vehicle: water",165 % of control and 166 % of control
same,T/C,"dose: 50.0 mg/kg/injection, schedule: Q01DX001 (ip), vehicle: water",177 % of control
COc1cc2cc3c4ccccc4cc[n+]3c(C)c2cc1OC (tested in a mixture with another compound),T/C,"dose: 5.0 mg/kg/injection, schedule: Q01DX009 (ip), vehicle: Klucel (hydroxypropylcellulose) (HPC)",99 % of control
same,T/C,"dose: 10.0 mg/kg/injection, schedule: Q01DX009 (ip), vehicle: Klucel (hydroxypropylcellulose) (HPC)",99 % of control
same,T/C,"dose: 20.0 mg/kg/injection, schedule: Q01DX009 (ip), vehicle: Klucel (hydroxypropylcellulose) (HPC)",95 % of control
COC(=O)C(CCl)NC(C)=O (centres undefined),T/C,[6],102 % of control
same,T/C,[7],102 % of control
same,T/C,[8],117 % of control
O=C1OC(c2ccc([N+](=O)[O-])cc2)=N/C1=C\c1ccc(Cl)cc1,T/C,[9],102 % of control
same,T/C,[3],86 % of control
C[P+](C)(Cc1ccc([N+](=O)[O-])cc1)c1ccccc1,T/C,[9],98 % of control
same,T/C,[3],100 % of control
CC(C)NNC(C)Cc1ccccc1 (centres undefined),T/C,"dose: 1.56 mg/kg/injection, schedule: Q01DX009 (ip), vehicle: Klucel (hydroxypropylcellulose) (HPC)",91 % of control
same,T/C,[1],86 % of control
same,T/C,[10],86 % of control
same,T/C,[2],91 % of control
same,T/C,[9],97 % of control
OC1CCC(O)C1(Cl)Cl (centres undefined),T/C,"dose: 25.0 mg/kg/injection, schedule: Q01DX009 (ip), vehicle: saline",98 % of control
same,T/C,[11],109 % of control
same,T/C,[6],91 % of control
O=NO.O=N[O-].O=N[O-].[Co+3].[NH2-].[NH2-].[NH2-].[NH2-],T/C,[10],88 % of control
same,T/C,[2],91 % of control
same,T/C,[9],92 % of control and 101 % of control
O=Cc1cc([N+](=O)[O-])ccc1Cl,T/C,"dose: 50.0 mg/kg/injection, schedule: Q01DX009 (ip), vehicle: saline with Tween-80",95 % of control
same,T/C,[12],92 % of control
CCOc1ccc2cc(S(=O)(=O)O)ccc2c1N,T/C,[12],95 % of control
same,T/C,"dose: 200.0 mg/kg/injection, schedule: Q01DX009 (ip), vehicle: saline with Tween-80",87 % of control
same,T/C,"dose: 400.0 mg/kg/injection, schedule: Q01DX009 (ip), vehicle: saline with Tween-80",95 % of control
CCOC1=C(N2CC2)C(=O)C(OCC)=C(N2CC2)C1=O,T/C,"dose: 0.5 mg/kg/injection, schedule: Q01DX009 (ip), vehicle: saline",105 % of control
same,T/C,"dose: 2.0 mg/kg/injection, schedule: Q01DX009 (ip), vehicle: saline",121 % of control
Cc1cccc(NC(=O)Nc2ccc(Cl)cc2)c1C,T/C,"dose: 100.0 mg/kg/injection, schedule: Q01DX009 (ip), vehicle: gum acacia",112 % of control
same,T/C,"dose: 200.0 mg/kg/injection, schedule: Q01DX009 (ip), vehicle: gum acacia",107 % of control
CC1(C)C2CCC1(C)C(COC(=O)c1cc([N+](=O)[O-])cc([N+](=O)[O-])c1)C2 (centres undefined),T/C,[4],96 % of control
same,T/C,[13],93 % of control
same,T/C,[5],87 % of control
O=C1OCC(O)C(O)C(O)C(O)C1O (centres undefined),T/C,[6],113 % of control
same,T/C,[7],106 % of control
same,T/C,[8],120 % of control
O=C(O)CP(=O)(O)O,T/C,"dose: 4.0 mg/kg/injection, schedule: Q01DX009 (ip), vehicle: saline",109 % of control
same,T/C,"dose: 8.0 mg/kg/injection, schedule: Q01DX009 (ip), vehicle: saline",104 % of control
same,T/C,"dose: 16.0 mg/kg/injection, schedule: Q01DX009 (ip), vehicle: saline",102 % of control
same,T/C,"dose: 32.0 mg/kg/injection, schedule: Q01DX009 (ip), vehicle: saline",101 % of control
same,T/C,[11],103 % of control
same,T/C,"dose: 64.0 mg/kg/injection, schedule: Q01DX009 (ip), vehicle: saline",102 % of control
same,T/C,[6],120 % of control
same,T/C,[7],154 % of control
same,T/C,[8],194 % of control
same,T/C,"dose: 800.0 mg/kg/injection, schedule: Q01DX009 (ip), vehicle: saline",211 % of control
O=C1C(=O)c2ccccc2-c2ccccc21.O=C1C(=O)c2ccccc2-c2ccccc21.[Hg],T/C,"dose: 1.5 mg/kg/injection, schedule: Q01DX009 (ip), vehicle: saline with Tween-80",94 % of control and 99 % of control
same,T/C,"dose: 3.0 mg/kg/injection, schedule: Q01DX009 (ip), vehicle: saline with Tween-80",88 % of control and 90 % of control
CCCCCCCCCCCCCOC(=O)CC(C(=O)OCCCCCCCCCCCCC)S(=O)(=O)O (centres undefined),T/C,[2],106 % of control
same,T/C,[9],108 % of control
same,T/C,[3],106 % of control
same,T/C,[4],93 % of control
same,T/C,[13],111 % of control
